Test results taken from patent US8946301B2, “Targeting of T-lymphocytes to treat amyotrophic lateral sclerosis” (ALS Therapy Development Institute, priority 2011, dated 2015).
“Also recorded” adds a separate entry of the source.

Assays:
CD4+ lymphocytes = experiment: FACS analysis of circulating CD4+ lymphocytes in whole blood of SOD1 mice; format: in vivo, mouse; details: for CD4+ cells in whole blood: 4 hours after third dose, control approximately 12%
Experimental: FIG. 3B is a FACS analysis showing the reduction of CD4+ lymphocytes in the circulation of male SOD1 mice that received fingolimod treatment. Dosing of fingolimod and time points were the same as in FIG. 3A.
(§1) The following dosage regimen was used to determine the dose dependent effects of fingolimod in SOD1 mice: • Cohorts: • 1) SOD1 Fingolimod Treated “High Dose” (Load 2.5 mg/kg, 1.8 mg/kg Oral q7d) • 4 hour post final dose harvest • 7 day post final dose harvest • 2) SOD1 Fingolimod Treated “Low Dose” (Load 0.44 mg/kg, 0.32 mg/kg Oral q7d) • 4 hour post final dose harvest • 7 day post final dose harvest • 3) SOD1 Vehicle Control • 4 hour post final dose harvest • 7 day post final dose harvest
(§2) The predicted plasma fingolimod load for both the high dose and the low dose regimes were determined, see FIGS. 2A and 2B. Tissues were harvested 4 hours after the third fingolimod dose. This time point was selected to best characterize the behavior of lymphocytes in animals treated with fingolimod when circulating levels of the drug are near peak concentration.

[1] = system: CD11b positive macrophages; experiment: Macrophage infiltration into gastrocnemius muscle / peripheral axons (anti-CD11b staining); format: in vivo, mouse; details: SOD1 animals, load 2.5 mg/kg then 1.8 mg/kg oral weekly from day 50, gastrocnemius at day 100, vs untreated SOD1
Experimental: SOD1 animals were treated with a loading dose of 2.5 mg/kg fingolimod, followed by weekly oral dosing of 1.8 mg/kg. Dosing was initiated at 50 days of age for the three cohorts: • 1) Non transgenic controls • 2) untreated SOD1 • 3) SOD1 Fingolimod Treated “High Dose” (Load 2.5 mg/kg, 1.8 mg/kg Oral q7d)
Gastrocnemius muscle was harvested from non-transgenic control, untreated SOD1 and fingolimod treated animals at 100 days of age. Tissues were immediately embedded in OCT after harvesting. Frozen sections were H&E stained and hybridized with antibodies to detect macrophages (αCD11b antibody).

[2] = system: lymphocytes in peritoneal lavage fluid; experiment: Lymphocyte cell counts in peritoneal lavage fluid by FACS; format: in vivo, mouse; details: vs untreated SOD1
Experimental: FIG. 4 is a graph showing cell counts in peritoneal lavage fluid. SOD1 animals received a loading dose of 2.5 mg/kg fingolimod orally, then oral 1.8 mg/kg once weekly for 3 weeks. Lymphocyte counts were measured via FACS for various cell surface antigens in the peritoneal lavage fluid.
SOD1 mice received a loading dose of 2.5 mg/kg fingolimod orally, then oral 1.8 mg/kg once weekly for 3 weeks. After sacrifice, several measurements were performed. To determine the lymphocyte cell count in peritoneal lavage fluid, peritoneal lavage fluid was removed after sacrifice of the animals and the peritoneal lavage fluid was subjected to fluorescent activated cell sorting for each of the cell surface antigens: CD11b, CD28, CD3, CD4, CD86, […], and LY6G. Lymphocyte cell count from SOD1 fingolimod treated mice was compared to untreated SOD1 mice in FIG. 4.

[3] = system: lymphocytes, dendritic cells, regulatory T cells; details: cited from earlier work
CD45R positive cells = experiment: Circulating CD45R positive cells in whole blood of SOD1 mice; format: in vivo, mouse; details: SOD1 animals, high and low dose groups
Experimental: as §1, §2

blood cells = experiment: Complete blood cell counts in whole blood; format: in vivo, mouse; details: vs untreated SOD1
Experimental: FIG. 6 is a graph showing complete blood cell counts in whole blood. SOD1 animals received a loading dose of 2.5 mg/kg fingolimod orally, then oral 1.8 mg/kg once weekly for 3 weeks. Complete blood cell counts included basophils (BAS), eosinophils (EOS), monocytes (MON), lymphocytes (LYM), neutrophils (NEU), and white blood cells (WBC).
Whole blood counts were also measured. Upon sacrifice, blood was removed and complete blood cell counts were performed.

[4] = cited from earlier work
[5] = whole blood, vs vehicle control
[6] = load 2.5 mg/kg oral then 1.8 mg/kg once weekly for 3 weeks

CCCCCCCCc1ccc(CCC(N)(CO)CO)cc1 [fingolimod, 2-amino-2-(4-octylphenethyl)propane-1,3-diol]
circulating CD4 positive cells in whole / peripheral blood (in words) (CD4+ lymphocytes; SOD1 animals, high and low dose groups): fewer; also recorded: transiently depletes | CD4+ cells in whole blood (CD4+ lymphocytes; high dose (load 2.5 mg/kg, 1.8 mg/kg q7d)): approximately 5% | CD4+ cells in whole blood (CD4+ lymphocytes; low dose (load 0.44 mg/kg, 0.32 mg/kg q7d)): approximately 5% | reduction in CD4+ cells (CD4+ lymphocytes; [5]): at least 50% | reduction in CD4+ cells (fold) (CD4+ lymphocytes; [5]): over two-fold | CD11b positive macrophages infiltrating the skeletal muscle / peripheral axons [1]: significantly fewer | CD11b positive macrophages infiltrating the skeletal muscle / peripheral axons ([1]; listed as Fingolimod): ability to block macrophage infiltration into peripheral axons | lymphocyte count, CD11b [2, 6]: decreased lymphocyte count | lymphocyte count, CD4 ([2]; same regimen): decreased lymphocyte count | lymphocyte count, CD28 ([2]; same regimen): decreased lymphocyte count | lymphocyte count, CD86 ([2]; same regimen): decreased lymphocyte count | lymphocyte count, CTLA34 ([2]; same regimen): decreased lymphocyte count | lymphocyte count, LY6G ([2]; same regimen): decreased lymphocyte count | circulating dendritic cells ([3]; Lan 2005, 2008): large increase | effect on lymphocyte population ([3]; Tsunemi 2010 and Zemann 2006): lymphopenia | regulatory T cells ([3]; Zhang et al. 2009): increase | circulating CD45R positive cells in whole blood (in words) (CD45R positive cells): fewer | basophils (BAS) count (blood cells; [6]): decreased numbers | eosinophils (EOS) count (blood cells; same regimen): decreased numbers | lymphocytes (LYM) count (blood cells; same regimen): decreased numbers | monocytes (MON) count (blood cells; same regimen): decreased numbers | neutrophils (NEU) count (blood cells; same regimen): no significant change | white blood cells (WBC) count (blood cells; same regimen): decreased numbers | CNS penetration and localization ([4]; Foster et al. 2007): CNS penetrant and localizes in the CNS white matter | brain/plasma ratio (in words) ([4]; Meno-Tetang 2006): high | plasma half-life (in words) ([4]; Meno-Tetang 2006): relatively long
